Assay results as given in PMC8370991, “Structural basis for the inhibition of HTLV-1 integration inferred from cryo-EM deltaretroviral intasome structures” (Nature Communications, 2021).
Like-named read-outs stand apart in the source and are kept apart here.

Legend:
recombinant HTLV-1 IN [1] = target: T1, recombinant HTLV-1 IN (Human T-cell leukemia virus 1, UniProt P03362); assay: In vitro integration strand transfer assay with HTLV-1 IN; format: biochemical; conditions: INSTI at 634 nM
T1 construct: made in house
T1 sequence (P03362 1168-1462): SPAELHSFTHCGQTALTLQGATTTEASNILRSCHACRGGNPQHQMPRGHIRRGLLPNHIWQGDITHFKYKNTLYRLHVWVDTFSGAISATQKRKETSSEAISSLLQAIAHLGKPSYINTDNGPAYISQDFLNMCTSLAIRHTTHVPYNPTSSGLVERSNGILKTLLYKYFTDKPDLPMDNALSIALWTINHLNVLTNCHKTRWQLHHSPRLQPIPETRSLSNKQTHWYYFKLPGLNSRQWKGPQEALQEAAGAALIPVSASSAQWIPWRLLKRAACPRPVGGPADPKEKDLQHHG
How it was run: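 Recombinant HTLV-1 IN (4 μg) with annealed 3′-processed LTR donor DNA (0.53 μM) preincubated 15 min RT with compound (screen at 634 nM) in PIPES pH 6.0, NaCl, MgCl2, ZnCl2, DTT; supercoiled plasmid target added, 1 h 37 °C. Concerted integration product quantified by agarose-gel densitometry; IC50 from dose–response fits, triplicate.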

STLV-1 IN(A219E) = assay: In vitro strand transfer assay with STLV-1 IN(A219E); format: biochemical; design: STLV-1 A219E strand transfer activity: unit not given here
Description: (§1) For STLV-1 IN, the reaction conditions were 25 mM BTP-HCl pH 6, 0.1 μM STLV-1 IN, 2 μM vDNA, 60 mM NaCl, 13.28 mM DTT, 10 mM MgCl2, 10 μM ZnCl2. STLV-1 IN and LEDGF/ΔIBD-B56γ were co-incubated at the above conditions at a 2:1 molar ratio, at 4 °C for 30 min. Donor vDNA was then added and the mixture was co-incubated at 37 °C for 10 min. For INSTI dose–response experiments, either the INSTI or DMSO control was then added, the sample was mixed and kept at 4 °C for an additional 15 min. Strand-transfer reactions were initiated by the addition of 300 ng of pGEM-9Zf(-) supercoiled plasmid DNA and stopped after 15 min of 37 °C incubation by adding 0.5% SDS and 25 mM EDTA, pH 8.0.
(§2) Proteins were degraded by incubation with 30 μg of proteinase K (Roche) at 37 °C for 1 h. DNA was precipitated at −20 °C overnight in the presence of ethanol supplemented with 20 μg of glycogen and then resuspended in 1.5× agarose loading dye. The DNA products were separated by electrophoresis through 1.5% agarose gel and stained with ethidium bromide and imaged using the BioRad GelDox XR + imager. The data were analysed and the IC50 calculated as previously described. In brief, the DNA band that corresponds to the concerted integration product was quantified by densitometry in ImageLab 4.1 (Bio-Rad). All experiments were done in triplicate. Quantified data points were fitted to dose–response curves in Prism 9. The cumulative standard deviation for each drug was calculated as an average of the upper limit and lower limit values: Lowerlimit=IC50/10^logSE(IC50) Upperlimit=IC50×10^logSE(IC50)

recombinant HTLV-1 IN [2] = target: T1, recombinant HTLV-1 IN; conditions: previously obtained values, cited from earlier work
STLV-1 IN (WT) = assay: In vitro strand transfer assay with wild-type STLV-1 IN; format: biochemical; design: STLV-1 WT strand transfer activity: unit not given here
Description: as §1, §2

HTLV-1 = conditions: cited from earlier work
HIV-1 = conditions: cited from earlier work
[3] = log10 concentration -3.69897, column 1 of 3
[4] = log10 concentration -3.69897, column 2 of 3
[5] = log10 concentration -4.69897, column 1 of 3
[6] = log10 concentration -4.69897, column 2 of 3
[7] = log10 concentration -5.69897, column 1 of 3
[8] = log10 concentration -5.69897, column 2 of 3
[9] = log10 concentration -6.19791, column 1 of 3
[10] = log10 concentration -6.19791, column 2 of 3
[11] = log10 concentration -6.69897, column 1 of 3
[12] = log10 concentration -6.69897, column 2 of 3
[13] = log10 concentration -7.19791, column 1 of 3
[14] = log10 concentration -7.19791, column 2 of 3
[15] = log10 concentration -7.69897, column 1 of 3
[16] = log10 concentration -7.69897, column 2 of 3
[17] = log10 concentration -8.69897, column 1 of 3
[18] = log10 concentration -8.69897, column 2 of 3
[19] = log10 concentration -10.699, column 1 of 3
[20] = log10 concentration -10.699, column 2 of 3

Compound: Cc1nnc(C(=O)NC(C)(C)c2nc(C(=O)NCc3ccc(F)cc3)c(O)c(=O)n2C)o1 [Raltegravir]
- HTLV-1 IN strand transfer activity (No drug = 100) (recombinant HTLV-1 IN [1]; Replicate 1): 34.4506%
- HTLV-1 IN strand transfer activity (No drug = 100) (recombinant HTLV-1 IN [1]; Replicate 2): 36.5909%
- IC50 with STLV-1 IN A219E compared with wild-type STLV-1 IN (STLV-1 IN(A219E); Supplementary Fig. 9): nearly identical
- STLV-1 A219E strand transfer activity (STLV-1 IN(A219E); log10 concentration -3.69897): 4.375
- STLV-1 A219E strand transfer activity (STLV-1 IN(A219E); [3]): 11.7647
- STLV-1 A219E strand transfer activity (STLV-1 IN(A219E); [4]): 5.393
- STLV-1 A219E strand transfer activity (STLV-1 IN(A219E); log10 concentration -4.69897): 6.875
- STLV-1 A219E strand transfer activity (STLV-1 IN(A219E); [5]): 7.843
- STLV-1 A219E strand transfer activity (STLV-1 IN(A219E); [6]): 4.103
- STLV-1 A219E strand transfer activity (STLV-1 IN(A219E); log10 concentration -5.69897): 7.8125
- STLV-1 A219E strand transfer activity (STLV-1 IN(A219E); [7]): 11.7647
- STLV-1 A219E strand transfer activity (STLV-1 IN(A219E); [8]): 9.8476
- STLV-1 A219E strand transfer activity (STLV-1 IN(A219E); log10 concentration -6.19791): 12.6562
- STLV-1 A219E strand transfer activity (STLV-1 IN(A219E); [9]): 16.6667
- STLV-1 A219E strand transfer activity (STLV-1 IN(A219E); [10]): 12.4267
- STLV-1 A219E strand transfer activity (STLV-1 IN(A219E); log10 concentration -6.69897): 25.4688
- STLV-1 A219E strand transfer activity (STLV-1 IN(A219E); [11]): 27.9412
- STLV-1 A219E strand transfer activity (STLV-1 IN(A219E); [12]): 28.136
- STLV-1 A219E strand transfer activity (STLV-1 IN(A219E); log10 concentration -7.19791): 49.375
- STLV-1 A219E strand transfer activity (STLV-1 IN(A219E); [13]): 64.2157
- STLV-1 A219E strand transfer activity (STLV-1 IN(A219E); [14]): 59.4373
- STLV-1 A219E strand transfer activity (STLV-1 IN(A219E); log10 concentration -7.69897): 90.625
- STLV-1 A219E strand transfer activity (STLV-1 IN(A219E); [15]): 108.333
- STLV-1 A219E strand transfer activity (STLV-1 IN(A219E); [16]): 86.2837
- STLV-1 A219E strand transfer activity (STLV-1 IN(A219E); log10 concentration -8.69897): 101.406
- STLV-1 A219E strand transfer activity (STLV-1 IN(A219E); [17]): 107.843
- STLV-1 A219E strand transfer activity (STLV-1 IN(A219E); [18]): 97.5381
- STLV-1 A219E strand transfer activity (STLV-1 IN(A219E); log10 concentration -10.699): 97.9688
- STLV-1 A219E strand transfer activity (STLV-1 IN(A219E); [19]): 103.922
- STLV-1 A219E strand transfer activity (STLV-1 IN(A219E); [20]): 99.8828
- IC50 (recombinant HTLV-1 IN [2]; Replicate 1, read-out: HTLV-1 IN strand transfer IC50): 477 nM
- IC50 (recombinant HTLV-1 IN [2]; Replicate 2, read-out: HTLV-1 IN strand transfer IC50): 425 nM
- IC50 (recombinant HTLV-1 IN [2]; Replicate 3, read-out: HTLV-1 IN strand transfer IC50): 344 nM
- IC50 (recombinant HTLV-1 IN [2]; integrase strand-transfer, read-out: HTLV-1 IC50 ± stdev): 410 ± 78.5 nM
- sensitivity of STLV-1 IN to the inhibitor (STLV-1 IN (WT); Supplementary Fig. 9): highly sensitive
- STLV-1 WT strand transfer activity (STLV-1 IN (WT); log10 concentration -3.69897): 15.0259
- STLV-1 WT strand transfer activity (STLV-1 IN (WT); [3]): 3.382
- STLV-1 WT strand transfer activity (STLV-1 IN (WT); [4]): 1.339
- STLV-1 WT strand transfer activity (STLV-1 IN (WT); log10 concentration -4.69897): 15.0259
- STLV-1 WT strand transfer activity (STLV-1 IN (WT); [5]): 1.932
- STLV-1 WT strand transfer activity (STLV-1 IN (WT); [6]): 3.125
- STLV-1 WT strand transfer activity (STLV-1 IN (WT); log10 concentration -5.69897): 25.9067
- STLV-1 WT strand transfer activity (STLV-1 IN (WT); [7]): 14.0097
- STLV-1 WT strand transfer activity (STLV-1 IN (WT); [8]): 13.3929
- STLV-1 WT strand transfer activity (STLV-1 IN (WT); log10 concentration -6.19791): 38.342
- STLV-1 WT strand transfer activity (STLV-1 IN (WT); [9]): 20.7729
- STLV-1 WT strand transfer activity (STLV-1 IN (WT); [10]): 15.625
- STLV-1 WT strand transfer activity (STLV-1 IN (WT); log10 concentration -6.69897): 40.9326
- STLV-1 WT strand transfer activity (STLV-1 IN (WT); [11]): 26.57
- STLV-1 WT strand transfer activity (STLV-1 IN (WT); [12]): 43.3036
- STLV-1 WT strand transfer activity (STLV-1 IN (WT); log10 concentration -7.19791): 63.2124
- STLV-1 WT strand transfer activity (STLV-1 IN (WT); [13]): 62.3188
- STLV-1 WT strand transfer activity (STLV-1 IN (WT); [14]): 68.75
- STLV-1 WT strand transfer activity (STLV-1 IN (WT); log10 concentration -7.69897): 94.3005
- STLV-1 WT strand transfer activity (STLV-1 IN (WT); [15]): 86.4734
- STLV-1 WT strand transfer activity (STLV-1 IN (WT); [16]): 94.1964
- STLV-1 WT strand transfer activity (STLV-1 IN (WT); log10 concentration -8.69897): 91.7098
- STLV-1 WT strand transfer activity (STLV-1 IN (WT); [17]): 100.483
- STLV-1 WT strand transfer activity (STLV-1 IN (WT); [18]): 99.1071
- STLV-1 WT strand transfer activity (STLV-1 IN (WT); log10 concentration -9.69897): 106.218
- STLV-1 WT strand transfer activity (STLV-1 IN (WT); log10 concentration -9.69897, column 1 of 3): 101.449
- STLV-1 WT strand transfer activity (STLV-1 IN (WT); log10 concentration -9.69897, column 2 of 3): 100.446
- STLV-1 WT strand transfer activity (STLV-1 IN (WT); log10 concentration -10.699): 100.518
- STLV-1 WT strand transfer activity (STLV-1 IN (WT); [19]): 102.415
- STLV-1 WT strand transfer activity (STLV-1 IN (WT); [20]): 99.5536
- EC50 (HTLV-1; MT-2-Jurkat cell-to-cell infection, read-out: HTLV-1 EC50): 6.42 ± 4.24 nM
- EC50 (HTLV-1; Replicate 1, previously reported values, read-out: HTLV-1 infection EC50): 7.85 nM
- EC50 (HTLV-1; Replicate 2, previously reported values, read-out: HTLV-1 infection EC50): 8.18 nM
- EC50 (HTLV-1; Replicate 3, previously reported values, read-out: HTLV-1 infection EC50): 4.08 nM
- EC50 (HIV-1; HIV-1 infection model, supplementary ref 18, read-out: HIV-1 EC50 ± stdev): 9.4 ± 1.4 nM
- EC50 (HIV-1; previously reported, read-out: EC50, infection by wild-type HIV-1): 4 ± 2 nM
